US20100303758A1, “Novel Glucocorticoid Receptor Agonists” (priority 2009, published 2010)

Legend:
[1] = molecular target: T1, human GR (Homo sapiens, UniProt P04150); assay: GR agonist potency, MMTV-luciferase reporter in SW1353 cells; format: cell-based; settings: human chondrosarcoma cell-line SW1353 stably transfected with MMTV-luciferase reporter; approx. 18 hours; data as percentage of 1 μM dexamethasone positive control
T1 construct: SW1353 naturally expresses human GR; endogenous in cells; host or cells: human chondrosarcoma cell-line SW1353 stably transfected with an MMTV-luciferase reporter construct
T1 sequence (P04150 1-777): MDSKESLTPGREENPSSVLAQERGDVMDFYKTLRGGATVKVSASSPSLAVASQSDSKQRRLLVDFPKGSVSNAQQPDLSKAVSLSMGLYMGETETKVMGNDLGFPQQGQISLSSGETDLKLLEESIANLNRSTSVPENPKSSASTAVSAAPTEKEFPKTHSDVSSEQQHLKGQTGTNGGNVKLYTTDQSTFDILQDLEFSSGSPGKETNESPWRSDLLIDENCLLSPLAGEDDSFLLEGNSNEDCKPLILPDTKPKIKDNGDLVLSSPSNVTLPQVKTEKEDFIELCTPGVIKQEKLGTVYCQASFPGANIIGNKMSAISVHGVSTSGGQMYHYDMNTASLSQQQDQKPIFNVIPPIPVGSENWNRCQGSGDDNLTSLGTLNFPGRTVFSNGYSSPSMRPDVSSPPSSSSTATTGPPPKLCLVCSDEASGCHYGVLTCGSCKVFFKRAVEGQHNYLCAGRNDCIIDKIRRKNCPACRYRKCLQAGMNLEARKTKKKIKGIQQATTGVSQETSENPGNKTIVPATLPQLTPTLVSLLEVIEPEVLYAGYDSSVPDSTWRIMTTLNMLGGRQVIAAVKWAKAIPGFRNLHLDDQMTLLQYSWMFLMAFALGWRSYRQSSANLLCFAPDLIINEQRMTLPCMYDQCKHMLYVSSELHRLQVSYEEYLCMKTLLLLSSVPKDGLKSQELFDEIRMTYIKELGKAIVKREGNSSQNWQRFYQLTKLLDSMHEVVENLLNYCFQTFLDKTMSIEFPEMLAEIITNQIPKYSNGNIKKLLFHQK
Description: Glucococorticoid receptor (GR) agonist potency was determined in the human chondrosarcoma cell-line SW1353 stably transfected with an MMTV-luciferase reporter construct. SW1353 naturally expresses human GR, which on binding a glucocorticoid agonist activates glucocorticoid response elements within the MMTV promoter, driving expression of the luciferase gene.
Frozen SW1353 cells were revived in DMEM medium, without sodium pyruvate or phenol red, supplemented with 2 mM L-glutamine, 1 μg/ml insulin, 2 mg/ml lactalbumin hydrosylate and 0.5 μg/ml ascorbate. Cells were seeded at approximately 5000 cells/well (35 μl/well) in 384-well clear bottom, tissue culture treated plates. Steroid dose-response dilutions were prepared in steroid diluent (PBS containing 2.5% (v/v) DMSO and 0.05% (v/v) pluronic detergent) and 5 μl added to each well. The volume was made up to 50 μl per well with steroid diluent. Positive control wells contained 1 μM dexamethasone. Plates were incubated for approximately 18 hours at 37° C. in an air/5% CO2 atmosphere in a humidified incubator before Britelite reagent (10 μl; Perkin-Elmer) was added to each well. Each plate was incubated for 2 minutes in the dark and luminescence quantified using a LJL Biosystems Analyst luminometer. Data for test compounds (expressed as percentage of the dexamethasone positive control) were used to construct dose response curves from which EC50 values were estimated.

[2] = Inhibition of TNF-α release from LPS stimulated isolated human PBMC; format: cell-based; settings: Homo sapiens, PBMC, read-out: IC50 (nM) for inhibition of TNF-α release
Description: The anti-inflammatory activity of the compounds against human leukocytes in vitro was also evaluated by determining inhibition of tumour necrosis factor-α (TNF-α) release from lipopolysaccharide (LPS) stimulated isolated human peripheral mononuclear cells (PBMC).
Peripheral venous blood from healthy, non-medicated donors was collected using ethylenediaminetetraacetic acid (EDTA) as the anti-coagulant. For PBMC preparation, samples of blood were diluted 1:1 with sterile phosphate buffered saline and then separated using ACCUSPIN™ System-Histopaque®-1077 tubes (Sigma-Aldrich, St Louis, Mo.), centrifuged at 400 g for 35 minutes. Buffy coat cells were removed into PBS, centrifuged at 200 g for 10 minutes and re-suspended in PBMC assay buffer (Hanks Balanced Salt Solution, 0.28% [w/v] 4-[2-hydroxyethyl]-1-piperazineethanesulfonic acid [HEPES], 0.01% [w/v] low-endotoxin bovine serum albumin [BSA]. A differential white cell count was performed and PBMC's diluted to 1×10^6 lymphocytes per ml in PBMC assay buffer.
Test compounds were dissolved in DMSO and diluted in PBMC assay buffer (final DMSO concentration 1%) to cover an appropriate concentration range, e.g 0.001 nM to 10000 nM. Samples of test compound solution or vehicle (20 μl) were added into 96-well tissue culture treated plates (Corning) and PBMC (160 μl) added to each well. The assay mixtures were incubated at 37° C. for 1 h in a humidified incubator containing an atmosphere of air supplemented with 5% CO2 before adding LPS (20 μl of 100 ng/ml for PBMC). Plates were returned to the incubator for a further 18 hours, and then centrifuged before recovery of samples of supernatant. TNF-α in the samples was determined using an enzyme-linked immunosorbent assay (ELISA) (Invitrogen kit no CHC-1754; Invitrogen Carlsbad, Calif.) and following the manufacturers instructions. Dose response curves were constructed from which IC50 values were calculated.

Structure (SMILES) | EC50 [1] [nM] | IC50 [2] [nM]
C[C@]12C=CC(=O)C=C1CC[C@H]1[C@@H]3CC[C@](OC(=O)c4ccc(Sc5ccc(O)c(Cl)c5)cc4)(C(=O)SCF)[C@@]3(C)C[C@H](O)[C@@]12F [Example 27, (11beta,17alpha)-9-fluoro-17-[((fluoromethyl)thio]carbonyl)-11-hydroxy-3-oxoandrosta-1,4-dien-17-yl 4-[(3-chloro-4-hydroxyphenyl)thio]benzoate] | 43.3 | 0.326
C[C@]12C=CC(=O)C=C1CC[C@H]1[C@@H]3CC[C@](OC(=O)c4ccc(Sc5ccccc5)cc4)(C(=O)SCC#N)[C@@]3(C)C[C@H](O)[C@@]12F [Example 28, (11beta,17alpha)-17-{[(cyanomethyl)thio]carbonyl}-9-fluoro-11-hydroxy-3-oxoandrosta-1,4-dien-17-yl 4-(phenylthio)benzoate] | 37.3 | 0.231
C[C@]12C=CC(=O)C=C1CC[C@H]1[C@@H]3CC[C@](OC(=O)c4ccc(Oc5ccccc5)cc4)(C(=O)SCC#N)[C@@]3(C)C[C@H](O)[C@@]12F [Example 29, (11beta,17alpha)-17-{[(cyanomethyl)-thio]carbonyl}-9-fluoro-11-hydroxy-3-oxoandrosta-1,4-dien-17-yl 4-phenoxybenzoate] | 78.4 | 0.156
C[C@]12C=CC(=O)C=C1CC[C@H]1[C@@H]3CC[C@](OC(=O)c4ccc(Sc5ccccc5)cc4)(C(=O)SCCl)[C@@]3(C)C[C@H](O)[C@@]12F [Example 30, (11beta,17alpha)-17-{[(chloromethyl)thio]carbonyl}-9-fluoro-11-hydroxy-3-oxoandrosta-1,4-dien-17-yl 4-(phenylthio)benzoate] | 20.6 | 0.256
C[C@]12C=CC(=O)C=C1[C@@H](F)C[C@H]1[C@@H]3CC[C@](OC(=O)c4ccc(OCc5ccccc5)cc4)(C(=O)CO)[C@@]3(C)C[C@H](O)[C@@]12F [Example 31, (6alpha,11beta)-6,9-difluoro-11,21-dihydroxy-3,20-dioxopregna-1,4-dien-17-yl 4-(benzyloxy)benzoate] | 102 | 0.152
C[C@]12C=CC(=O)C=C1CC[C@H]1[C@@H]3CC[C@](OC(=O)c4ccc(OCc5ccccc5)cc4)(C(=O)CO)[C@@]3(C)C[C@H](O)[C@@]12F [Example 32, (11beta)-9-fluoro-11,21-dihydroxy-3,20-dioxopregna-1,4-dien-17-yl 4-(benzyloxy)benzoate] | 36 | 0.506
C[C@]12C=CC(=O)C=C1CC[C@H]1[C@@H]3CC[C@](OC(=O)c4ccc(Oc5ccccc5)c(O)c4)(C(=O)OCC#N)[C@@]3(C)C[C@H](O)[C@@]12F [Example 33, cyanomethyl(11beta,17alpha)-9-fluoro-11-hydroxy-17-[(3-hydroxy-4-phenoxybenzoyl)oxy]-3-oxoandrosta-1,4-diene-17-carboxylate] | 68.3 | 0.212
C[C@]12C=CC(=O)C=C1CC[C@H]1[C@@H]3CC[C@](OC(=O)c4ccc(Sc5ccccc5O)cc4)(C(=O)OCC#N)[C@@]3(C)C[C@H](O)[C@@]12F [Example 35, cyanomethyl (11beta,17alpha)-9-fluoro-11-hydroxy-17-({4-[(2-hydroxyphenyl)thio]benzoyl}oxy)-3-oxoandrosta-1,4-diene-17-carboxylate] | 75.2 | 0.099
C[C@]12C=CC(=O)C=C1CC[C@H]1[C@@H]3CC[C@](OC(=O)c4ccc(Oc5ccc(O)nc5)cc4)(C(=O)OCC#N)[C@@]3(C)C[C@H](O)[C@@]12F [Example 36, cyanomethyl (11beta,17alpha)-9-fluoro-11-hydroxy-17-({4-[(6-hydroxypyridin-3-yl)oxy]benzoyl}-oxy)-3-oxoandrosta-1,4-diene-17-carboxylate] | 16.3 | 0.167
C[C@]12C=CC(=O)C=C1CC[C@H]1[C@@H]3CC[C@](OC(=O)c4ccc(Oc5ccc(O)c(Cl)c5)cc4)(C(=O)OCC#N)[C@@]3(C)C[C@H](O)[C@@]12F [Example 37, cyanomethyl (11beta,17alpha)-17-{[4-(3-chloro-4-hydroxybhenoxy)-benzoyl]oxy}-9-fluoro-11-hydroxy-3-oxoandrosta-1,4-diene-17-carboxylate] | 39.7 | 0.201
C[C@]12C=CC(=O)C=C1CC[C@H]1[C@@H]3CC[C@](OC(=O)c4ccc(Sc5ccc(Cl)c(O)c5)cc4)(C(=O)SCC#N)[C@@]3(C)C[C@H](O)[C@@]12F [Example 38, (11beta,17alpha)-17-{[(cyanomethyl)thio]carbonyl}-9-fluoro-11-hydroxy-3-oxoandrosta-1,4-dien-17-yl 4-[(4-chloro-3-hydroxyphenyl)thio]benzoate] | 54.7 | 0.755
C[C@]12C=CC(=O)C=C1CC[C@H]1[C@@H]3CC[C@](OC(=O)c4ccc(Sc5ccc(Cl)c(O)c5)cc4)(C(=O)OCC#N)[C@@]3(C)C[C@H](O)[C@@]12F [Example 39, cyanomethyl(11beta,17alpha)-17-({4-[(4-chloro-3-hydroxyphenyl)thio]benzoyl}oxy)-9-fluoro-11-hydroxy-3-oxoandrosta-1,4-diene-17-carboxylate] | 44.1 | 0.615
C[C@]12C=CC(=O)C=C1CC[C@H]1[C@@H]3CC[C@](OC(=O)c4ccc(Oc5ccc(Cl)c(O)c5)cc4)(C(=O)SCF)[C@@]3(C)C[C@H](O)[C@@]12F [Example 40, (11beta,17alpha)-9-fluoro-17-{[(fluoromethyl)thio]carbonyl}-11-hydroxy-3-oxoandrosta-1,4-dien-17-yl 4-(4-chloro-3-hydroxyphenoxy)benzoate] | 31.2 | 0.053
C[C@@H]1C[C@H]2[C@@H]3C[C@H](F)C4=CC(=O)C=C[C@]4(C)[C@@]3(F)[C@@H](O)C[C@]2(C)[C@@]1(OC(=O)c1ccc(Oc2ccc(Cl)c(O)c2)cc1)C(=O)OCF [Example 41, Fluoromethyl (6alpha,11beta,16alpha,17alpha)-17-{[4-(4-chloro-3-hydroxyphenoxy)benzoyl]oxy}-6,9-difluoro-11-hydroxy-16-methyl-3-oxoandrosta-1,4-diene-17-carboxylate] | 7.73 | 0.032
C[C@@H]1C[C@H]2[C@@H]3C[C@H](F)C4=CC(=O)C=C[C@]4(C)[C@@]3(F)[C@@H](O)C[C@]2(C)[C@@]1(OC(=O)c1ccc(Oc2ccc(Cl)c(O)c2)cc1)C(=O)OCC#N [Example 42, Cyanomethyl (6alpha,11beta,16alpha,17alpha)-17-{[4-(4-chloro-3-hydroxyphenoxy)benzoyl]oxy}-6,9-difluoro-11-hydroxy-16-methyl-3-oxoandrosta-1,4-diene-17-carboxylate] | 24.4 | 0.443
